The source made the active and inactive calls. How the calls were made is not given here.
Tested on: rodent lifetime carcinogenesis bioassay, tumor incidence TD50
Test: carcinogenic potency in animals, long-term in vivo studies, CPDB compilation (AID 1745844)

O=C1C(c2[nH]c3ccc(S(=O)(=O)O)cc3c2O)=Nc2ccc(S(=O)(=O)O)cc21
carcinogen call (mouse, strain Charles River CD1, females, in feed, site: liver, lesion: nodular hyperplasia, dosed 84 weeks, study length 84 weeks): negative (inactive)
carcinogen call (mouse, strain Charles River CD1, females, in feed, site: lung, lesion: adenoma, dosed 84 weeks, study length 84 weeks): negative (inactive)
TD50 (mouse, strain Charles River CD1, males, in feed, site: liver, lesion: nodular hyperplasia, dosed 84 weeks, study length 84 weeks): 20200 mg/kg/day (inactive)
carcinogen call (mouse, strain Charles River CD1, males, in feed, site: lung, lesion: adenoma, dosed 84 weeks, study length 84 weeks): negative (inactive)
TD50 (mouse, strain Charles River CD (Sprague-Dawley), females, in feed, site: any site (literature study), lesion: malignant tumor, dosed 100 weeks, study length 100 weeks): 33900 mg/kg/day (inactive)
carcinogen call (mouse, strain Charles River CD (Sprague-Dawley), females, in feed, site: any site (literature study), lesion: several types, types named in the paper, dosed 100 weeks, study length 100 weeks): negative (inactive)
TD50 (mouse, strain Charles River CD (Sprague-Dawley), males, in feed, site: any site (literature study), lesion: malignant tumor, dosed 95 weeks, study length 95 weeks): 57100 mg/kg/day (inactive)
TD50 (mouse, strain Charles River CD (Sprague-Dawley), males, in feed, site: any site (literature study), lesion: several types, types named in the paper, dosed 95 weeks, study length 95 weeks): 23400 mg/kg/day (inactive)
TD50 (rat, strain Osborne-Mendel, both sexes, in feed, site: any site (literature study), lesion: several types, types named in the paper, dosed 104 weeks, study length 104 weeks): 5430 mg/kg/day (inactive)

CC1=CC(=C(c2ccc(N)cc2)c2ccc(N)cc2)C=CC1=N
carcinogen call (hamster, strain Syrian Golden, females, by gavage, site: any site (literature study), lesion: several types, types named in the paper, dosed 68 weeks, study length 68 weeks): negative (inactive)
carcinogen call (hamster, strain Syrian Golden, males, by gavage, site: any site (literature study), lesion: several types, types named in the paper, dosed 84 weeks, study length 84 weeks): negative (inactive)
TD50 (hamster, strain Syrian Golden, males, by gavage, site: lung, lesion: bronchiolar adenoma, dosed 84 weeks, study length 84 weeks): 2020 mg/kg/day (inactive)
carcinogen call (rat, strain Sprague-Dawley, females, by gavage, site: any site (literature study), lesion: several types, types named in the paper, dosed 107 weeks, study length 107 weeks): negative (inactive)
carcinogen call (rat, strain Sprague-Dawley, males, by gavage, site: any site (literature study), lesion: several types, types named in the paper, dosed 111 weeks, study length 111 weeks): negative (inactive)

Nc1nc(-c2ccc([N+](=O)[O-])o2)cs1
TD50 (mouse, strain Swiss, females, in feed, site: any site (literature study), lesion: several types, types named in the paper, dosed 46 weeks, study length 55 weeks): 6.83 mg/kg/day
TD50 (mouse, strain Swiss, females, in feed, site: forestomach, lesion: several types, types named in the paper, dosed 46 weeks, study length 55 weeks): 7.87 mg/kg/day
TD50 (mouse, strain Swiss, females, in feed, site: forestomach, lesion: squamous-cell papilloma, dosed 46 weeks, study length 55 weeks): 11.5 mg/kg/day
TD50 (rat, strain Fischer, females, in feed, site: forestomach, lesion: several types, types named in the paper, dosed 52 weeks, study length 68 weeks): 5.85 mg/kg/day
TD50 (rat, strain Fischer, females, in feed, site: forestomach, lesion: squamous-cell papilloma, dosed 52 weeks, study length 68 weeks): 8.94 mg/kg/day
TD50 (rat, strain Fischer, females, in feed, site: urinary bladder, lesion: several types, types named in the paper, dosed 52 weeks, study length 68 weeks): 30.3 mg/kg/day

O=NN1CC(=O)NC1=O
TD50 (rat, strain MRC-Wistar, females, in drinking water, site: any site (literature study), lesion: several types, types named in the paper, dosed 52 weeks, study length 110 weeks): 19.6 mg/kg/day
TD50 (rat, strain MRC-Wistar, males, in drinking water, site: any site (literature study), lesion: several types, types named in the paper, dosed 52 weeks, study length 110 weeks): 7.31 mg/kg/day
TD50 (rat, strain MRC-Wistar, males, in drinking water, site: forestomach, lesion: squamous-cell papilloma, dosed 52 weeks, study length 110 weeks): 27.8 mg/kg/day
TD50 (rat, strain MRC-Wistar, males, in drinking water, site: pharynx, lesion: squamous-cell carcinoma, dosed 52 weeks, study length 110 weeks): 43.8 mg/kg/day
